Reference: US20240173440A1, “HIGH PURITY COPPER RADIOPHARMACEUTICAL COMPOSITIONS AND DIAGNOSTIC AND THERAPEUTIC USES THEREOF” (Nuclidium AG, priority 2022, published 2024)
Blank lines part the entries; values can stand above or below the molecule they belong to.

Assays:
[1] = system: HT-1080.hFAP and HT-1080.wt xenografts; test: Quantitative biodistribution in HT-1080.hFAP and HT-1080.wt xenografted mice; format: in vivo; details: for Biodistribution HT-1080.wt: FAP-negative tumor; for Biodistribution HT-1080.hFAP: FAP-positive tumor
Method: The tumors were allowed to grow to an average volume of 100-200 mm3.
Biodistribution Studies: The xenografted mice were randomized (n=5 per group) and injected intravenously via the tail vein with the ^61Cu-labeled radioligands (100 μL, […], 0.8-1MBq). Mice were euthanized 1h and 4h pi. by CO2 asphyxiation. Organs of interest and blood were collected, rinsed of excess blood, blotted dry, weighed, and counted in a […]. The samples were counted against a suitably diluted aliquot of the injected solution as the standard and the results are expressed as the percentage of the injected activity per gram of tissue (0% I.A./g)+SD.

[2] = molecular target: hFAP (Homo sapiens (Human), UniProt Q12884); test: Saturation binding on isolated HEK-293.hFAP cell membranes; set-up: Bmax: unit not given here; details: 37° C.
Sequence of hFAP (Q12884 whole entry): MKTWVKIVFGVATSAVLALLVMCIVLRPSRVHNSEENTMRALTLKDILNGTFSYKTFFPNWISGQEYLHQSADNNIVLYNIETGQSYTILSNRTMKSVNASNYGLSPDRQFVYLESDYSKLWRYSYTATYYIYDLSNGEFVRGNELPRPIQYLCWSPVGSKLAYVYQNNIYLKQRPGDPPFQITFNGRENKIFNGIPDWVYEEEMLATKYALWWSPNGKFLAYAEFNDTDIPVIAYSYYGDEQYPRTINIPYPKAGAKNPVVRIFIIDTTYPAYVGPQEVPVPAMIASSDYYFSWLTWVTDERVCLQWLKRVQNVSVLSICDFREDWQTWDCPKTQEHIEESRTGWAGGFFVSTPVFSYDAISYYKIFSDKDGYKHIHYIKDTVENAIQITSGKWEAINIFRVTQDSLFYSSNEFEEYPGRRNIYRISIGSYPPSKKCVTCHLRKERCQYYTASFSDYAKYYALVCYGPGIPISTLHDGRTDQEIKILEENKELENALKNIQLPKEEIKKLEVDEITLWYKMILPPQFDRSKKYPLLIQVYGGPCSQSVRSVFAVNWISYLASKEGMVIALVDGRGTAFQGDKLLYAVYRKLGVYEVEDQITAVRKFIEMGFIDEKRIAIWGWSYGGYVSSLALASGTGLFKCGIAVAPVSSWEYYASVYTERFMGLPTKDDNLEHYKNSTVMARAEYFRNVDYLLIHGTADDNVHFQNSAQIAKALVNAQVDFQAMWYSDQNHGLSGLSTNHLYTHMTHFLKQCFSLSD
Method: The cells were homogenized using Ultra-Turrax, and the homogenized suspension was centrifuged at 500×g for 10 min at 4° C. The supernatant was collected in centrifuge tubes (Beckman Coulter Inc., Brea, CA, USA). This procedure was then repeated 5 times. The collected supernatant was centrifuged in an ultra-centrifuge (Beckman) at 4° C. for 55 min at 49,000×g. Then, the pellet was re-suspended in 10 mM ice-cold HEPES buffer (pH 7.5), aliquoted, and stored at −80° C. The protein concentration of those membrane suspensions was determined by the Bradford method, BSA as the standard.
Each assay tube contained 170 μL of binding buffer (20 mM HEPES, pH 7.4, containing 4 mM μgCl2, 0.2% BSA, 20 μg/L bacitracin, 20 μg/L PMSF and 200,000 KIU/L aprotinin). The incubation was initiated by adding 30 μL of radioligand solution at 10 times the final concentration and 100 μL of cell membrane suspension to yield 10 μg of protein per well. For the determination of the non-specific binding, 140 μL of the above binding buffer was added along with 30 μL of FAPI-46 to obtain (0.1 mM). Bound fractions were plotted versus the corresponding radioligand concentration at equilibrium. The dissociation constant (KD) and maximal binding capacity (Bmax) values were calculated using GraphPad Software Inc., Prism 7, San Diego, CA, USA (Table 33 and FIG. 21).

[3] = system: HT-1080.hFAP cells; test: In vitro cellular uptake (cell surface and internalized fractions) in HT-1080.hFAP cells; format: cell-based, human
Method: (§1) The cellular uptake was studied in vitro using intact cells seeded in 6-well plates overnight. On the day of the experiment, the cells were washed and incubated with each of the exemplified [^61Cu]Cu-radiotracer at different time points, either alone or in the presence of a blocking agent to distinguish between specific and non-specific uptake. At each investigated time point, the medium containing the unbound (free) radiotracer was removed, followed by two washing steps with ice-cold phosphate-buffered saline. The cells were then treated 2×5 min with ice-cold glycine solution (0.05 M, pH 2.8) to detach the cell surface-bound radiotracer (acid released). Afterwards, the cells containing the internalized radiotracer were detached with 1 M NaOH at 37° C. and collected for measurement. The amount of specific cell surface-bound and internalized radiotracer is expressed as percentage of the total applied activity, after subtracting the non-specific values.
as §1, with “^61Cu-labeled conjugate” for “of the exemplified [^61Cu]Cu-radiotracer”
The cells were then preconditioned in 360 μL of assay medium (MEM medium without supplements) at 37° C. for 60 min. 40 μL of a 2 nM solution of ^61Cu-labeled radioligand was added and the cells were incubated at 37° C. The cellular uptake was interrupted at different time points (15 min, 1 hour and 4 hours), by washing twice with ice-cold PBS. Cell surface-bound radioligand was obtained by washing cells twice with ice-cold glycine buffer (pH 2.8), followed by a collection of the internalized fraction with 1 M NaOH. The activity in each fraction was measured in a γ-counter (Cobra II).

[4] = 1 h p.i., HT-1080.hFAP and HT-1080.wt xenografts
[5] = 4 h p.i., HT-1080.hFAP and HT-1080.wt xenografts
[6] = HT-1080.hFAP and HT-1080.wt xenografts

- Biodistribution Heart ([1]; 1 hour p.i.): 0.6 ± 0.1 % I.A./g
- Biodistribution Intestine ([1]; 1 hour p.i.): 0.5 ± 0.1 % I.A./g
- Biodistribution Liver ([1]; 1 hour p.i.): 0.6 ± 0.1 % I.A./g
- Biodistribution Lung ([1]; 1 hour p.i.): 0.8 ± 0.1 % I.A./g
- Biodistribution Muscle ([1]; 1 hour p.i.): 0.9 ± 0.1 % I.A./g
- Biodistribution Spleen ([1]; 1 hour p.i.): 0.4 ± 0.1 % I.A./g
- Biodistribution Stomach ([1]; 1 hour p.i.): 0.6 ± 0.1 % I.A./g
- Biodistribution Adrenal [1, 4]: 1.5 ± 0.3 % IA/g
- Biodistribution Blood [1, 4]: 1.2 ± 0.1 % IA/g
- Biodistribution Femur [1, 4]: 2.4 ± 0.3 % IA/g
- Biodistribution HT1080.hFAP (FAP-positive tumor) [1, 4]: 3.5 ± 1.0 % IA/g
- Biodistribution HT1080.wt (FAP-negative tumor) [1, 4]: 1.4 ± 0.2 % IA/g
- Biodistribution Heart [1, 4]: 0.6 ± 0.1 % IA/g
- Biodistribution Intestine [1, 4]: 0.5 ± 0.1 % IA/g
- Biodistribution Kidney [1, 4]: 1.1 ± 0.1 % IA/g
- Biodistribution Liver [1, 4]: 0.6 ± 0.1 % IA/g
- Biodistribution Lung [1, 4]: 0.8 ± 0.1 % IA/g
- Biodistribution Muscle [1, 4]: 0.9 ± 0.1 % IA/g
- Biodistribution Pancreas [1, 4]: 1.1 ± 0.2 % IA/g
- Biodistribution Spleen [1, 4]: 0.4 ± 0.1 % IA/g
- Biodistribution Stomach [1, 4]: 0.6 ± 0.1 % IA/g
- Biodistribution Adrenal ([1]; 4 hours p.i.): 0.3 ± 0.1 % I.A./g
- Biodistribution Blood ([1]; 4 hours p.i.): 0.5 ± 0.1 % I.A./g
- Biodistribution Heart ([1]; 4 hours p.i.): 0.3 ± 0.0 % I.A./g
- Biodistribution Intestine ([1]; 4 hours p.i.): 0.3 ± 0.1 % I.A./g
- Biodistribution Kidneys ([1]; 4 hours p.i.): 1.0 ± 0.1 % I.A./g
- Biodistribution Liver ([1]; 4 hours p.i.): 0.6 ± 0.1 % I.A./g
- Biodistribution Lung ([1]; 4 hours p.i.): 0.4 ± 0.0 % I.A./g
- Biodistribution Muscle ([1]; 4 hours p.i.): 0.4 ± 0.1 % I.A./g
- Biodistribution Pancreas ([1]; 4 hours p.i.): 0.5 ± 0.0 % I.A./g
- Biodistribution Spleen ([1]; 4 hours p.i.): 0.2 ± 0.0 % I.A./g
- Biodistribution Stomach ([1]; 4 hours p.i.): 0.3 ± 0.1 % I.A./g
- Biodistribution Adrenal [1, 5]: 0.3 ± 0.1 % IA/g
- Biodistribution Blood [1, 5]: 0.5 ± 0.1 % IA/g
- Biodistribution Femur [1, 5]: 1.6 ± 0.3 % IA/g
- Biodistribution HT1080.hFAP (FAP-positive tumor) [1, 5]: 4.0 ± 0.6 % IA/g
- Biodistribution HT1080.wt (FAP-negative tumor) [1, 5]: 0.9 ± 0.1 % IA/g
- Biodistribution Heart [1, 5]: 0.3 ± 0.0 % IA/g
- Biodistribution Intestine [1, 5]: 0.3 ± 0.1 % IA/g
- Biodistribution Kidney [1, 5]: 1.0 ± 0.1 % IA/g
- Biodistribution Liver [1, 5]: 0.6 ± 0.1 % IA/g
- Biodistribution Lung [1, 5]: 0.4 ± 0.0 % IA/g
- Biodistribution Muscle [1, 5]: 0.4 ± 0.1 % IA/g
- Biodistribution Pancreas [1, 5]: 0.5 ± 0.0 % IA/g
- Biodistribution Spleen [1, 5]: 0.2 ± 0.0 % IA/g
- Biodistribution Stomach [1, 5]: 0.3 ± 0.1 % IA/g
- Biodistribution HT-1080.wt ([1]; 1 hour p.i.): 1.4 ± 0.2 % I.A./g
- Biodistribution HT-1080.wt ([1]; 4 hours p.i.): 0.9 ± 0.1 % I.A./g
- Biodistribution HT-1080.hFAP ([1]; 1 hour p.i.): 3.5 ± 1.0 % I.A./g
- Biodistribution HT-1080.hFAP ([1]; 4 hours p.i.): 4.0 ± 0.6 % I.A./g
- Bmax [2]: 7.7-8.4
SMILES: CN(C(=O)CCC(=O)NCCNC(=O)CC[C@H](C(=O)O)N1CCN2CCN(CC1)CC(=O)[O][61Cu][O]C(=O)C2)c1ccc2nccc(C(=O)NCC(=O)N3CC(F)(F)C[C@H]3C#N)c2c1 [[^61Cu]Cu-NODAGA-F2]
- accumulation in tumor and target-positive tissues [1, 6]: high accumulation in FAP-positive (HT-1080.hFAP) tumor and murine-FAP-positive tissues

- Biodistribution Heart ([1]; 1 hour p.i.): 0.7 ± 0.1 % I.A./g
- Biodistribution Intestine ([1]; 1 hour p.i.): 0.8 ± 0.2 % I.A./g
- Biodistribution Liver ([1]; 1 hour p.i.): 0.9 ± 0.1 % I.A./g
- Biodistribution Spleen ([1]; 1 hour p.i.): 0.5 ± 0.1 % I.A./g
- Biodistribution Stomach ([1]; 1 hour p.i.): 0.8 ± 0.1 % I.A./g
- Biodistribution Adrenal [1, 4]: 2.1 ± 0.6 % IA/g
- Biodistribution Blood [1, 4]: 1.7 ± 0.1 % IA/g
- Biodistribution Femur [1, 4]: 5.4 ± 1.2 % IA/g
- Biodistribution HT1080.hFAP (FAP-positive tumor) [1, 4]: 7.9 ± 0.9 % IA/g
- Biodistribution HT1080.wt (FAP-negative tumor) [1, 4]: 4.0 ± 2.2 % IA/g
- Biodistribution Heart [1, 4]: 0.7 ± 0.1 % IA/g
- Biodistribution Intestine [1, 4]: 0.8 ± 0.2 % IA/g
- Biodistribution Kidney [1, 4]: 1.6 ± 0.3 % IA/g
- Biodistribution Liver [1, 4]: 0.9 ± 0.1 % IA/g
- Biodistribution Lung [1, 4]: 1.2 ± 0.1 % IA/g
- Biodistribution Muscle [1, 4]: 2.1 ± 0.8 % IA/g
- Biodistribution Pancreas [1, 4]: 1.6 ± 0.2 % IA/g
- Biodistribution Spleen [1, 4]: 0.5 ± 0.1 % IA/g
- Biodistribution Stomach [1, 4]: 0.8 ± 0.1 % IA/g
- Biodistribution Blood ([1]; 4 hours p.i.): 0.9 ± 0.0 % I.A./g
- Biodistribution Heart ([1]; 4 hours p.i.): 0.5 ± 0.0 % I.A./g
- Biodistribution Intestine ([1]; 4 hours p.i.): 0.4 ± 0.1 % I.A./g
- Biodistribution Kidneys ([1]; 4 hours p.i.): 1.0 ± 0.2 % I.A./g
- Biodistribution Liver ([1]; 4 hours p.i.): 0.7 ± 0.1 % I.A./g
- Biodistribution Lung ([1]; 4 hours p.i.): 0.7 ± 0.1 % I.A./g
- Biodistribution Pancreas ([1]; 4 hours p.i.): 0.9 ± 0.0 % I.A./g
- Biodistribution Spleen ([1]; 4 hours p.i.): 0.3 ± 0.0 % I.A./g
- Biodistribution Stomach ([1]; 4 hours p.i.): 0.5 ± 0.0 % I.A./g
- Biodistribution Adrenal [1, 5]: 1.4 ± 0.3 % IA/g
- Biodistribution Blood [1, 5]: 0.9 ± 0.0 % IA/g
- Biodistribution Femur [1, 5]: 3.7 ± 0.3 % IA/g
- Biodistribution HT1080.hFAP (FAP-positive tumor) [1, 5]: 6.4 ± 2.0 % IA/g
- Biodistribution HT1080.wt (FAP-negative tumor) [1, 5]: 1.8 ± 0.3 % IA/g
- Biodistribution Heart [1, 5]: 0.5 ± 0.0 % IA/g
- Biodistribution Intestine [1, 5]: 0.4 ± 0.1 % IA/g
- Biodistribution Kidney [1, 5]: 1.0 ± 0.2 % IA/g
- Biodistribution Liver [1, 5]: 0.7 ± 0.1 % IA/g
- Biodistribution Lung [1, 5]: 0.7 ± 0.1 % IA/g
- Biodistribution Muscle [1, 5]: 1.1 ± 0.1 % IA/g
- Biodistribution Pancreas [1, 5]: 0.9 ± 0.0 % IA/g
- Biodistribution Spleen [1, 5]: 0.3 ± 0.0 % IA/g
- Biodistribution Stomach [1, 5]: 0.5 ± 0.0 % IA/g
- Biodistribution HT-1080.wt ([1]; 1 hour p.i.): 4.0 ± 2.2 % I.A./g
- Biodistribution HT-1080.wt ([1]; 4 hours p.i.): 1.8 ± 0.3 % I.A./g
- Biodistribution HT-1080.hFAP ([1]; 1 hour p.i.): 7.9 ± 0.9 % I.A./g
- Biodistribution HT-1080.hFAP ([1]; 4 hours p.i.): 6.4 ± 2.0 % I.A./g
- Bmax [2]: 7.3-8.1
SMILES: N#C[C@@H]1CC(F)(F)CN1C(=O)CNC(=O)c1ccnc2ccc(NC(=O)CCC(=O)N3CCN(C(=O)CC[C@H](C(=O)O)N4CCN5CCN(CC4)CC(=O)[O][61Cu][O]C(=O)C5)CC3)cc12 [[^61Cu]Cu-NODAGA-F3]
- Cell surface fraction ([3]; 15 min, HT-1080.hFAP cells, specific uptake (minus HT-1080.wt)): 0.9 ± 0.3 % of the applied activity
- Cell surface fraction ([3]; Time Point 15 min, 0.2 nM): 0.9 ± 0.3 percentage of the total applied activity
- accumulation in tumor and target-positive tissues [1, 6]: high accumulation in FAP-positive (HT-1080.hFAP) tumor and murine-FAP-positive tissues
